Source: patent publication US5236918A, “6-aryl-3-cyanaminopyridazines, their preparation and use and medicaments containing them” (BYK Gulden Lomberg Chemische Fabrik GmbH, priority 1989, dated 1993)

What was measured:
[1] = test system: tracheal ring chain of the guinea-pig; experiment: bronchospasmolytic action on the tracheal ring chain of the guinea-pig in vitro (relaxation of stable tonic spontaneous contraction); format: cell-based; settings: for EC50: Cavia porcellus, EC50 in mol/l, 50% of the maximum relaxation achievable with (-)isoprenaline 10^-6 mol/l, spontaneous contraction, 37° C.; for [EC50]theophylline / [EC50]substance: quotient of EC50 values, theophylline = 1
Protocol: (§1) The bronchospasmolytic action of the compounds on the tracheal ring chain of the guinea-pig was tested in vitro as follows: Four parallel tracheal ring chains, each consisting of 6 individual rings, of the guinea-pig (female and male, 430-600 g), in an organ bath [5 ml, Krebs-Henseleit solution with addition of phentolamine (10^-5 mol/l), 37° C., pretension of the organs 2 g, gassing with carbogen] develop a stable, tonic spontaneous contraction after about 20 to 30 minutes. Relaxation can be brought about on these permanently contracted organs under isometric measurement conditions by application of the test substance in a cumulatively semi-logarithmically increasing concentration (e.g. 1×10^-6 +2×10^-6 +7×10^-6 +2×10^-5etc. mol/l), a constant relaxation response being awaited after each individual dose of the test substance before the next higher concentration is applied. A complete dose/effect curve of the test substance is thus obtained over a period of 20 to 30 minutes. The particular relaxation is expressed as the percentage fraction of the maximum relaxation which can be achieved by addition of (-)isoprenaline (10^-6 mol/l).

[2] = test system: histamine-induced bronchospasm; experiment: histamine-induced bronchospasm on the anaesthetized guinea-pig; format: in vivo
Protocol: The bronchospasmolytic action was furthermore determined on the model of "histamine-induced bronchospasm on the anaesthetized guinea-pig":
In this model, pharmacodynamic and toxic effects on internal sensitive receptors, on the respiration and on the cardiovascular system of guinea-pigs are recorded simultaneously [U. Kilian, E. Muller, E. Ch.
A histamine spasm before administration of the substance was compared with several histamine spasms after administration of the substance. The test substances were administered intravenously (i.v.) and/or intrajejunally (i.j.).

[3] = test system: acetylcholine-induced bronchospasm; experiment: protective action against acetylcholine-induced bronchospasm on the conscious guinea-pig; format: in vivo; settings: Cavia porcellus, 0.5 h; verum, oral, 100 μmol/kg, 30 minutes after administration; protected = latency period at least three times; read-out: Number of animals protected/number of animals used (converted)
Protocol: The bronchospasmolytic action was additionally tested on the model of "Protective action against acetylcholine-induced bronchospasm on the conscious guinea-pig":
Guinea-pigs (250-350 g) are exposed in a closed Plexiglas cylinder (volume 5 l) to an acetylcholine mist (0.06% in 0.9% sodium chloride solution; ultrasonic mister Heyer Use 77) twice before administration of the substance at an interval of 20 minutes, and 30 minutes after administration of the substance. The time from the start of misting to the onset of clear respiratory exertion (under certain circumstances hypoxic convulsions in the lateral position) is measured and defined as the latency period. A prolonging of the latency period after administration of the substance to at least three times the average latency period before administration of the substance is regarded as a protective action, and the number of protected animals in the group is stated. The test substances are administered orally by means of a stomach tube (dose 100 μmol/kg, volume 1 ml/kg, suspending agent 4% Methocel suspension in 0.9% sodium chloride solution).
The test substance is administered perorally by means of a stomach tube (standard dose 100 μmol, volume 1 ml 4% Methocel suspension in 0.9% sodium chloride solution/kg). After 30 minutes, the animals are exposed to the acetylcholine mist again and the latency periods are measured. Prolonging of the latency period to at least three times the length is regarded as a protective action.

[4] = test system: PDE IV; experiment: inhibition of PDE IV from the canine trachea; format: biochemical; settings: for [IC50]theophylline / [IC50]substance: PDE IV canine trachea, quotient of IC50 values, theophylline = 1; for -log[IC50] PDE IV canine trachea: cAMP 0.5 μmol/l, 37° C., 20 minutes
Description: (§2) The inhibition of phosphodiesterases of classes III (PDE III=high-affinity cAMP-PDE which can be inhibited by cGMP) and IV (PDE IV=high-affinity cAMP-PDE which cannot be inhibited by cGMP, Rolipram-sensitive) is regarded as being particularly conclusive for a bronchospasmolytic and/or antiinflammatory action which may be expected [H. Hidaka et al., Adv. Cycl. Nucl. Res. 13, 145 (1984); Tips 5, 237 (1984); R. Weishaar et al., J. Med. Chem. 28, 537 (1985); S. A. Harrison et al., Molec. Pharmac. 29, 506 (1986); J. Klein-Tebbe et al., Allergologie 12, 12 (1989); C. Schudt et al., Allergologie 12, 12 (1989)].
(§3) The PDE inhibition of the compounds according to the invention was therefore determined on a PDE III isolated from human platelets and PDE IV isolated from human neutrophilic polymorphonuclear cells (PMNs) and from the canine trachea. The phosphodiesterases III and IV are isolated by chromatography by the method of Polson et al., Biochem. Pharmacol. 31, 3403-3406 (1982).
(§4) The substances are dissolved in DMSO and diluted further. From a series of solutions diluted up to a hundred-fold, 2.1 μl portions are taken and 212 μl reaction mixture are added. The reaction mixture contains Hepes (100 mmol/l), DTE (5 mmol/l), MgCl2 (5 mmol/l), CaCl2 (10 μmol/l), BSA fraction V 0.5 mg/ml, cAMP 0.5 μmol/l, 2,8-^3 H-cAMP 250,000 cpm/ml (0.3 μCi/ml, s.a. 33.5 μCi/mmol) and SV (snake venom) (25 μg/212 μl test batch).
(§5) The reaction is started by addition of 10 μl PDE to the reaction mixture and to the substance batch. The mixtures are then incubated at 37° C. for 20 minutes. The reaction is stopped by heating at 95° C. for 45 seconds. After the samples have cooled, the SV solution is added, the 5-AMP formed being cleaved. After incubation for 30 minutes at 37° C., this reaction is stopped by addition of 1 ml anion exchanger suspension. The cAMP which remains is thereby bonded. The adenosine formed remains in the supernatant after centrifugation and can be measured in an aliquot by the radioactivity contained therein.

[5] = test system: PDE IV; experiment: inhibition of PDE IV from human neutrophilic polymorphonuclear cells (PMNs); format: biochemical; settings: for [IC50]theophylline / [IC50]substance: PDE IV human PMNs, quotient of IC50 values, theophylline = 1; for -log[IC50] PDE IV PNMs: human neutrophilic polymorphonuclear cells, cAMP 0.5 μmol/l, 37° C., 20 minutes
Description: as §2, §3, §4, §5

[6] = test system: trachea (tracheal ring chain of the guinea-pig); experiment: trachea-relaxing action: relaxation of contractions generated by histamine, carbachol, prostaglandin, ovalbumin and leukotriene; format: cell-based; settings: Cavia porcellus; read-out: trachea-relaxing action, contraction by OA (converted)
Protocol: as §1, with “mol/l). The concentration of the test substance which causes 50% of the maximum relaxation which can be achieved serves as a measure of the bronchodilatory activity, expressed by the negative logarithm of the EC50 mol/l: -log[EC50 ].” for “mol/l).”
The trachea-relaxing action of compounds 3 and 4 was additionally tested by relaxation of the contractions generated by histamine (His), carbachol (CC), prostaglandin (PGF2alpha), ovalbumin (OA) and leukotriene (LTC4).

[7] = target: T1, PDE III (Homo sapiens, UniProt Q14432); experiment: inhibition of PDE III isolated from human platelets; format: biochemical; settings: for [IC50]theophylline / [IC50]substance: PDE III, quotient of IC50 values, theophylline = 1; for IC50: human platelets, cAMP 0.5 μmol/l, 37° C., 20 minutes, read-out: -log[IC50] PDE III (converted)
T1 construct: PDE III isolated from human platelets; from tissue; host or cells: human platelets
T1 sequence (Q14432 whole entry): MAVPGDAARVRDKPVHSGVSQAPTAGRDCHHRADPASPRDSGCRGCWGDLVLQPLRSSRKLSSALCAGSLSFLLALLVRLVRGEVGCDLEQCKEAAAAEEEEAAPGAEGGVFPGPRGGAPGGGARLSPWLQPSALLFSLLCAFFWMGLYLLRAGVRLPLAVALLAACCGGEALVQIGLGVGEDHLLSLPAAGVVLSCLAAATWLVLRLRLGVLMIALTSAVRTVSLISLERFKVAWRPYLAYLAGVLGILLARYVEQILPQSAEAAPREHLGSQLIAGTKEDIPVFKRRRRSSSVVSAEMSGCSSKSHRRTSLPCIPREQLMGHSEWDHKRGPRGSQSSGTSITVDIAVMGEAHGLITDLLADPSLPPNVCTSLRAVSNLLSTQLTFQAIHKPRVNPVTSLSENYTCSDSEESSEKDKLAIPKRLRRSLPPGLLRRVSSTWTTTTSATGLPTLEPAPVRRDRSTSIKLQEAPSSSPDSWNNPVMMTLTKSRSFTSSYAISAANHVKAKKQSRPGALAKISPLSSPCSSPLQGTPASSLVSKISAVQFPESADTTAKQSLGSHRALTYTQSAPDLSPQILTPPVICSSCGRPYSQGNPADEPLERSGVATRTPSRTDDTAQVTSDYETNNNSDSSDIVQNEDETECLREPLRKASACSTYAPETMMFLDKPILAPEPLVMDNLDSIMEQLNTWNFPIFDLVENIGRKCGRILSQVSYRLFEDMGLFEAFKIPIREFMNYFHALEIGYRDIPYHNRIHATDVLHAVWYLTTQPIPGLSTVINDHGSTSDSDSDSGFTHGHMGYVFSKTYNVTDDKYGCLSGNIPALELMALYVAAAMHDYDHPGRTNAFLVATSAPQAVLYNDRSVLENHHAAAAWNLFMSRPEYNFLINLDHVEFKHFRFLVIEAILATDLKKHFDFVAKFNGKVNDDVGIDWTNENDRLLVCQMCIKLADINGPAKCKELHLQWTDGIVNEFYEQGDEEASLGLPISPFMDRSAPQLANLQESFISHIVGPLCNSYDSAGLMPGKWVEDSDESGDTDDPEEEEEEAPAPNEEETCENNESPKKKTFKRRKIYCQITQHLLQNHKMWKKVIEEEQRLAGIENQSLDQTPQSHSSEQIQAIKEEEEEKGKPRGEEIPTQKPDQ
Description: as §2, §3, §4, §5

[8] = i.j. (intrajejunal), 20 μmol/kg
[9] = i.j. (intrajejunal), 60 μmol/kg

| Compound | EC50 [1] [nM] | [EC50]theophylline / [EC50]substance [1] | Average percentage bronchospasmolytic action 0-1 h p. appl., % inhibition of the histamine-induced decrease in Vmaxe ([2]; i.v., 20 μmol/kg) [%] | responders at 100 µmol/kg [3] [%] | [IC50]theophylline / [IC50]substance [4] | -log[IC50] PDE IV canine trachea [4] | [IC50]theophylline / [IC50]substance [5] | -log[IC50] PDE IV PNMs [5] | EC50 [6] [nM] | Average percentage bronchospasmolytic action 0-1 h p. appl., % inhibition of the histamine-induced decrease in Vmaxe [2, 8] [%] | Average percentage bronchospasmolytic action 0-1 h p. appl., % inhibition of the histamine-induced decrease in Vmaxe [2, 9] [%] | Average percentage bronchospasmolytic action 0-1 h p. appl., % inhibition of the histamine-induced decrease in Vmaxe ([2]; i.j. (intrajejunal), 100 μmol/kg) [%] | Average percentage bronchospasmolytic action 0-1 h p. appl., % inhibition of the histamine-induced decrease in Vmaxe ([2]; i.v., 60 μmol/kg) [%] | Average percentage bronchospasmolytic action 0-1 h p. appl., % inhibition of the histamine-induced decrease in Vmaxe ([2]; i.v., 100 μmol/kg) [%] | [IC50]theophylline / [IC50]substance [7] | IC50 [7] [nM] |
| --- | --- | --- | --- | --- | --- | --- | --- | --- | --- | --- | --- | --- | --- | --- | --- | --- |
| CCOc1cc(-c2ccc(NC#N)nn2)ccc1OC(F)F [Compound 12, 3-Cyanamino-6-(4-difluoromethoxy-3-ethoxyphenyl)pyridazine] | 2450 | 55.0 | 50 | 70 | 97.8 | 5.80 |  |  |  |  |  |  |  |  |  |  |
| CCOc1ccc(-c2ccc(NC#N)nn2)cc1OCC(C)C [Compound 13, 3-Cyanamino-6-[4-ethoxy-3-(2-methylpropoxy)phenyl]pyridazine] | 537 | 251 | 28 | 65 |  |  | 263 | 6.18 |  |  |  |  |  |  |  |  |
| Cn1c(=O)c2[nH]cnc2n(C)c1=O [Theophylline, theophylline, reference compound] |  |  | 13 | 30 |  | 3.81 |  | 3.76 | 288000 | 11 | 37 | 45 | 25 | 34 |  |  |
| COc1ccc(-c2ccc(NC#N)nn2)cc1OC(C)C [Compound 3, 3-Cyanamino-6-[4-methoxy-3-(1-methylethoxy)phenyl]pyridazine] | 417 | 324 | 28 | 70 | 82.2 | 5.75 | 117 | 5.82 | 646 | 29 | 65 |  | 65 |  | 30.8 | 5250 |
| COc1ccc(-c2ccc(NC#N)nn2)cc1OCC(C)C [Compound 4, 3-Cyanamino-6-[4-methoxy-3-(2-methylpropoxy)phenyl]pyridazine] | 112 | 1203 | 37 | 85 | 355 | 6.36 | 357 | 6.33 | 398 | 39 | 60 |  | 87 |  | 26.9 | 6030 |
